Data as given in patent EP4752142A1, “5-HT2A RECEPTOR AGONIST, AND PREPARATION METHOD THEREFOR AND USE THEREOF” (Innovstone Therapeutics Limited, priority 2023, dated 2025).

The compounds below were run against 5-HT2A receptor (Homo sapiens, UniProt P28223) (assay: 5-HT2A receptor isotope competition affinity assay). Settings: not given.
Chain of 5-HT2A receptor (P28223 whole entry): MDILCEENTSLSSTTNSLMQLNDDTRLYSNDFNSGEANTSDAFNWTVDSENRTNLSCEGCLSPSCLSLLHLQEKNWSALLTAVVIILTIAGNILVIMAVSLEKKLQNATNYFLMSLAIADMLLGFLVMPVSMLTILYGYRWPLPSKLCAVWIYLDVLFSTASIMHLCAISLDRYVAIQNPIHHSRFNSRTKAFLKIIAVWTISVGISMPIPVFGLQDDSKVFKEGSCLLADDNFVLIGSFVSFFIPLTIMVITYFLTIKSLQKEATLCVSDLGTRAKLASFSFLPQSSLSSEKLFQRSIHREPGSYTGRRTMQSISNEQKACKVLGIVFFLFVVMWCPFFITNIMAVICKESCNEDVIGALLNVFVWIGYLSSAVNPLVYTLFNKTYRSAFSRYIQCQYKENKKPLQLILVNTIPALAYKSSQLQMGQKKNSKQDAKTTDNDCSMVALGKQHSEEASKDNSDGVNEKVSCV
Assay type: binding
Description: A radiolabeled ligand (agonist or antagonist) incubated with receptor protein could form a receptor-ligand complex. An added test compound could compete with the isotopically labeled ligand for the receptor binding, eventually forming a relative steady-state equilibrium. The affinity of the test compound for the receptor was indirectly evaluated by measuring the dissociation of the isotopically labeled ligand from the receptor.
A 100x serial gradient dilution of compounds was prepared in DMSO, starting from 1 mM with 4-fold serial dilutions, resulting in 10 concentration points. Using a pipettor, 1 µL of each gradient concentration of the test compound (final concentration starting at 10 µM, 4-fold serial dilutions, 10 concentration points) was transferred to a 96-well assay plate, to each well of which 49 µL of 5-HT2A receptor protein (102 µg/mL, prepared in an assay buffer: 50 mM Tris-HCl, pH 7.4) had been added in advance (final concentration 5 µg/well). This was followed by the addition of 50 µL of isotopically labeled [^3H]-Ketanserin (2 nM, 2× final concentration, prepared in the assay buffer). The plate was sealed and incubated on a shaker at room temperature for 1 hour. The reaction mixture was filtered through a Unifilter-96 GF/C filter plate pre-treated with 0.3% PEI. The filter plate was washed with a precooled (4°C) assay buffer and then dried in an incubator at 50°C. A scintillation liquid was added, and the plate was read using a MicroBeta2 instrument. The percentage inhibition was calculated using the equation: %Inhibition=(CountHigh Signal Control-CountSample)/(CountHigh Signal Control-CountLow Signal Control)*100. A four-parameter logistic fit was used to calculate the IC50 value. High Signal Control: No compound group (the same volume of DMSO substituted). Low Signal Control: Ketanserin group (non-isotopically labeled, 2× final concentration). Table 1: Results of 5-HT2A receptor isotope competition affinity assay, Ki Values
In the case of COc1ccccc1CCCN1CCOC(c2n[nH]c3ccccc23)C1 (centres unmarked) [Compound 37, 3-(4-(3-(2-methoxyphenyl)propyl)morpholin-2-yl)-1H-indazole], the Ki is reported as < 100 nM. In the case of COc1ccccc1CCCN1CCOC(c2c[nH]c3ccccc23)C1 (centres unmarked) [Compound 29, 2-(1H-indol-3-yl)-4-(3-(2-methoxyphenyl)propyl)morpholine], the Ki is reported as < 100 nM. With c1ccc2c(C3CCN(CCCc4nncs4)C3)c[nH]c2c1 (centres unmarked) [Compound 50, 3-(1-(3-(1,3,4-thiadiazol-2-yl)propyl)pyrrolidin-3-yl)-1H-indole] the Ki was < 100 nM. COc1ccccc1CCCN1CCOC(c2c[nH]c3ccncc23)C1 (centres unmarked) [Compound 34, 4-(3-(2-methoxyphenyl)propyl)-2-(1H-pyrrolo[3,2-c]pyridin-3-yl)morpholine] was tested, and the Ki was < 100 nM. For Cn1cc(CCCN2CCC(c3n[nH]c4ccccc34)C2)cn1 (centres unmarked) [Compound 69, 3-(1-(3-(1-methyl-1H-pyrazol-4-yl)propyl)pyrrolidin-3-yl)-1H-indazole], the Ki was < 100 nM.

Same assay, conditions: competition with [3H]-Ketanserin, 1 hour, room temperature; read-out: 5-HT2A receptor/Ki
In the case of COc1ccccc1CCCN1CC(c2c[nH]c3ccccc23)C1 [Compound 11, 3-(1-(3-(2-methoxyphenyl)propyl)azetidin-3-yl)-1H-indole], the Ki is reported as < 100 nM. In the case of Fc1ccc2c(C3CCN(CCCc4nncn4C4CC4)C3)c[nH]c2c1 (centres unmarked) [Compound 99], the Ki is reported as < 100 nM. With COc1ccccc1C1CCN(CCc2c[nH]c3cccc(O)c23)CC1 [Compound 10, 3-(2-(4-(2-methoxyphenyl)piperidin-1-yl)ethyl)-1H-indol-4-ol] the Ki was < 100 nM. With c1ccc2c(C3CCN(CC4CCn5c(nnc5C5CC5)C4)C3)c[nH]c2c1 (centres unmarked) [Compound 145, 3-(1-((3-cyclopropyl-SH,6H,7H,8H-[1,2,4]triazolo[4,3-a]pyridine-7-yl)methyl)pyrrolidin-3-yl)-1H-indole] the Ki was < 100 nM. With Cc1nn(CCCN2CC[C@@H](c3c[nH]c4cccc(O)c34)C2)nc1C [Compound 186, (S)-3-(1-(3-(4,5-dimethyl-2H-1,2,3-triazol-2-yl)propyl)pyrrolidin-3-yl)-1H-indol-4-ol] the Ki was < 100 nM. Cc1nn(CCCN2CC[C@H](c3c[nH]c4cccc(O)c34)C2)nc1C [Compound 185, (R)-3-(1-(3-(4,5-dimethyl-2H-1,2,3-triazol-2-yl)propyl)pyrrolidin-3-yl)-1H-indol-4-ol] was tested, and the Ki was < 100 nM. With COc1ccccc1CCCN1C2CCC1C(c1c[nH]c3ccccc13)C2 (centres unmarked) [Compound 16, 3-(7-(3-(2-methoxyphenyl)propyl)-7-azabicyclo[2.2.1]heptan-2-yl)-1H-indole] the Ki was < 100 nM. In the case of Oc1cccc2[nH]cc(C3CCN(CCCc4ncon4)C3)c12 (centres unmarked) [Compound 173, 3-(1-(3-(1,2,4-oxadiazol-3-yl)propyl)pyrrolidin-3-yl)-1H-indol-4-ol], the Ki is reported as < 100 nM. With COc1cccc2nnc(CCN3CCC(c4c[nH]c5cc(F)ccc45)C3)n12 (centres unmarked) [Compound 147, 6-fluoro-3-(1-(2-(5-methoxy-(1,2,4)triazolo(4,3-a)pyridin-3-yl)ethyl)pyrrolidin-3-yl)-1H-indole] the Ki was < 100 nM. For CC(C)c1nnc2n1CCC(CN1CCC(c3c[nH]c4ccccc34)C1)C2 (centres unmarked) [Compound 139, 7-((3-(1H-indol-3-yl)pyrrolidin-1-yl)methyl)-3-isopropyl-5,6,7,8-tetrahydro-[1,2,4]triazolo[4,3-a]pyridine], the Ki was < 100 nM. In the case of Cn1cc(CCCN2CCC(c3noc4cc(F)ccc34)C2)cn1 (centres unmarked) [Compound 68], the Ki is reported as < 100 nM. For Fc1ccc2c(C3CCN(CCCc4nncn4CC(F)(F)F)C3)c[nH]c2c1 (centres unmarked) [Compound 83], the Ki was < 100 nM. For Cc1nnc(CCCN2CCC(n3ccc4cc(F)ccc43)C2)n1C(C)C (centres unmarked) [Compound 103], the Ki was < 100 nM. In the case of c1ccc2c([C@@H]3CCN(CCCn4nccn4)C3)c[nH]c2c1 [Compound 178, (S)-3-(1-(3-(2H-1,2,3-triazol-2-yl)propyl)pyrrolidin-3-yl)-1H-indole], the Ki is reported as < 100 nM. Oc1cccc2[nH]cc(C3CN(CCCc4cc(F)ccc4F)CCO3)c12 (centres unmarked) [Compound 40] was tested, and the Ki was < 100 nM. COc1ccc(F)c2nnc(CCN3CC(c4c[nH]c5cc(F)ccc45)C3)n12 [Compound 148, 6-fluoro-3-(1-(2-(8-fluoro-5-methoxy-(1,2,4)triazolo(4,3-a)pyridin-3-yl)ethyl)azetidin-3-yl)-1H-indole] was tested, and the Ki was < 100 nM. With Cn1cc(CCCN2CCC(n3ccc4cc(F)ccc43)C2)cn1 (centres unmarked) [Compound 61] the Ki was < 100 nM. For CC(C)c1nc(CCCN2CCC(c3n[nH]c4ccccc34)C2)no1 (centres unmarked) [Compound 175, 3-(3-(-3-(1H-indazol-3-yl)pyrrolidin-1-yl)propyl)-5-isopropyl-1,2,4-oxadiazole], the Ki was < 100 nM. For c1ccc2c(C3CCN(CCc4nnc5sccn45)C3)c[nH]c2c1 (centres unmarked) [Compound 143, 3-(2-(3-(1H-indol-3-yl)pyrrolidin-1-yl)ethyl)thiazolo[2,3-c][1,2,4]triazole], the Ki was < 100 nM. In the case of c1ccc2c(C3CCN(CCCn4nccn4)C3)n[nH]c2c1 (centres unmarked) [Compound 189, 3-(1-(3-(2H-1,2,3-triazol-2-yl)propyl)pyrrolidin-3-yl)-1H-indazole], the Ki is reported as < 100 nM. In the case of COc1ccccc1CCCN1CCC(c2n[nH]c3ccccc23)C1 (centres unmarked) [Compound 23], the Ki is reported as < 100 nM. In the case of COc1ccccc1CCN1CCC(c2c[nH]c3cccc(O)c23)C1 (centres unmarked) [Compound 1, 3-(1-(2-(2-methoxyphenyl)ethyl)pyrrolidin-3-yl)-1H-indol-4-ol], the Ki is reported as < 100 nM. In the case of CC(C)n1cnnc1CCCN1CCC(c2c[nH]c3ccccc23)C1 (centres unmarked) [Compound 79], the Ki is reported as < 100 nM. In the case of CC(C)n1cnnc1CCCN1CCC(c2c[nH]c3cc(F)ccc23)C1 (centres unmarked) [Compound 84], the Ki is reported as < 100 nM. For Fc1ccc2c(C3CCN(CCCc4nncn4C4CCC4)C3)c[nH]c2c1 (centres unmarked) [Compound 92], the Ki was < 100 nM. In the case of Cn1cc(CCCN2CCC(c3c[nH]c4ccccc34)C2)cn1 (centres unmarked) [Compound 57, 3-(1-(3-(1-methyl-1H-pyrazol-4-yl)propyl)pyrrolidin-3-yl)-1H-indole], the Ki is reported as < 100 nM. With COc1ccccc1CCCN1CCC(c2c[nH]c3ccccc23)C1 (centres unmarked) [Compound 5, 3-(1-(3-(2-methoxyphenyl)propyl)pyrrolidin-3-yl)-1H-indole] the Ki was < 100 nM. For Fc1ccc2c(C3CCN(CCc4nnc5c(F)cccn45)C3)c[nH]c2c1 (centres unmarked) [Compound 149, 6-fluoro-3-(1-(2-(8-fluoro-(1,2,4)triazolo[4,3-a]pyridin-3-yl)ethyl)pyrrolidin-3-yl)-1H-indole], the Ki was < 100 nM. In the case of CC(C)n1cnnc1CCCN1CCC(n2ccc3cc(F)ccc32)C1 (centres unmarked) [Compound 80], the Ki is reported as < 100 nM. Oc1cccc2[nH]cc([C@H]3CCN(CCCn4nccn4)C3)c12 [Compound 181, (R)-3-(1-(3-(2H-1,2,3-triazol-2-yl)propyl)pyrrolidin-3-yl)-1H-indol-4-ol] was tested, and the Ki was < 100 nM. With CC1CN(CCCc2nncn2C(C)C)CC1c1c[nH]c2cc(F)ccc12 (centres unmarked) [Compound 90, 6-fluoro-3-(4-methyl-1-(3-(4-(propan-2-yl)-4H-1,2,4-triazol-3-yl)propyl)pyrrolidin-3-yl)-1H-indole] the Ki was < 100 nM. With c1ccc2c(C3CCN(CCCc4ncsn4)C3)c[nH]c2c1 (centres unmarked) [Compound 55, 3-(1-(3-(1,2,4-thiadiazol-3-yl)propyl)pyrrolidin-3-yl)-1H-indole] the Ki was < 100 nM. In the case of Oc1cccc2[nH]cc(C3CCN(CCc4coc5c(F)cccc45)C3)c12 (centres unmarked) [Compound 135], the Ki is reported as < 100 nM. For COc1ccccc1CCCN1CCC(c2n[nH]c3ccncc23)C1 (centres unmarked) [Compound 30], the Ki was < 100 nM. In the case of c1ccc2c(c1)CC(CN1CCC(c3c[nH]c4ccncc34)C1)CO2 (centres unmarked) [Compound 141], the Ki is reported as < 100 nM. COc1ccccc1CCCN1CCCC(c2c[nH]c3cccc(O)c23)C1 (centres unmarked) [Compound 4, 3-(1-(3-(2-methoxyphenyl)propyl)piperidin-3-yl)-1H-indol-4-ol] was tested, and the Ki was < 100 nM. COc1ccccc1CCCN1CCC(c2c[nH]c3cccc(F)c23)C1 (centres unmarked) [Compound 8] was tested, and the Ki was < 100 nM. In the case of CC(CCc1nncn1C(C)C)N1CCC(c2c[nH]c3cc(F)ccc23)C1 (centres unmarked) [Compound 91], the Ki is reported as < 100 nM. For COc1ccccc1CCCN1CCC(c2c[nH]c3ncccc23)C1 (centres unmarked) [Compound 22], the Ki was < 100 nM. CC(C)c1nc(CCCN2CCC(c3c[nH]c4cccc(O)c34)C2)no1 (centres unmarked) [Compound 174, 3-(1-(3-(5-isopropyl-1,2,4-oxadiazol-3-yl)propyl)pyrrolidin-3-yl)-1H-indol-4-ol] was tested, and the Ki was < 100 nM. In the case of C1=C(c2c[nH]c3ccccc23)CN(CCCn2nccn2)CC1 [Compound 179, 3-(1-(3-(2H-1,2,3-triazol-2-yl)propyl)-1,2,5,6-tetrahydropyridin-3-yl)-1H-indole], the Ki is reported as < 100 nM. COc1ccccc1CCCN1CCC(n2ccc3cc(F)ccc32)C1 (centres unmarked) [Compound 7] was tested, and the Ki was < 100 nM. With COc1ccccc1CCCN1CCC(c2c[nH]c3cccc(OC)c23)C1 (centres unmarked) [Compound 9] the Ki was < 100 nM. In the case of c1ccc2c([C@H]3CCN(CCCn4nccn4)C3)c[nH]c2c1 [Compound 177, (R)-3-(1-(3-(2H-1,2,3-triazol-2-yl)propyl)pyrrolidin-3-yl)-1H-indole], the Ki is reported as < 100 nM. CC(C)n1c(CCCN2CCC(c3c[nH]c4cc(F)ccc34)C2)nnc1C(F)(F)F (centres unmarked) [Compound 100] was tested, and the Ki was < 100 nM.
